# In patent publication US11180452B2, “Methods and compositions for selectively inhibiting pathogenic microbes” (priority 2019, dated 2021):
# Where “and” joins values, the source holds several entries; their conditions need not be identical. Equal entries are not always repeated. Where two headings read alike, the source gives them in different places.
# Assays:
# Bacillus subtilis = Bacillus subtilis MIC / MBC; format: cell-based; details: for MBC: Bacillus subtilis NRRL: B-571, minimum bactericidal concentration; for MIC: Bacillus subtilis
# Bacillus thuringiensis = format: cell-based; details: Bacillus thuringiensis Berliner ATCC: 10792; for MIC: Bacillus thuringiensis, read-out: MIC
# [1] = Toxicity in mice, body weight over 7 days; format: in vivo, Balb/c mice; details: for toxicity in mice by body weight: 6-week-old Balb/c mice, body weight over 7 days, vehicle 40% PEG300 in 0.9% NaCl; for Animal body weight (kg) Day 0 / Animal body weight (kg) Day 1 / Animal body weight (kg) Day 2 / Animal body weight (kg) Day 3 / Animal body weight (kg) Day 4 / Animal body weight (kg) Day 5 / Animal body weight (kg) Day 6 / Animal body weight (kg) Day 7: mice, IP; for Animal body weight (kg) Day 0: Day 0, individual animals; for Animal body weight (kg) Day 1: Day 1, individual animals; for Animal body weight (kg) Day 2: Day 2, individual animals; for Animal body weight (kg) Day 3: Day 3, individual animals; for Animal body weight (kg) Day 4: Day 4, individual animals; for Animal body weight (kg) Day 5: Day 5, individual animals; for Animal body weight (kg) Day 6: Day 6, individual animals; for Animal body weight (kg) Day 7: Day 7, individual animals
# From the text: The vehicle is 40% PEG300 solution in 0.9% NaCl. […] Thus, the compounds are useful for in vivo antimicrobial administration.
# N. gonorrhoeae = N. gonorrhoeae MIC; format: cell-based; details: Neisseria gonorrhoeae
# [2] = tested on: Francisella tularensis strains; experiment: microbe, parasite or virus in culture; format: cell-based
# [3] = tested on: Burkholderia thailandensis Brett et al ATCC: 700388; experiment: microbe, parasite or virus in culture; format: cell-based
# Candida glabrata = Candida glabrata MIC / MFC; format: cell-based; details: Nakaseomyces glabratus, Candida glabrata #584 (Table 2); for MIC: read-out: MIC
# NoSpin HepaRG cells = experiment: HepaRG cytotoxicity, MTT assay EC50; format: cell-based, human; details: Homo sapiens, HepaRG; cytotoxicity EC50, Table 9
# Protocol: Additionally, the antimicrobial compounds were analyzed for cytotoxicity. […] We utilized the standard MTT assay (Promega CellTiter 96) and GraphPad Prism 7 software to determine EC50 values for each analogue. Briefly, 20,000 HepG2 cells in 200 μl of the ATCC recommended media were seeded in each well of a 96-well plate with a moisture barrier created in the outermost wells. The cells were allowed to attach overnight at 37° C., and then observed under phase contrast microscopy for proper morphological characteristics. […] Once incubations were complete, the spectrophotometric absorbance of the samples was measured at a wavelength of 595 nm. […] For the HepaRG assay, NoSpin HepaRG™ cells (Lonza, cat #NSHPRG) were thawed and plated with 20,000 cells per well. They were allowed to attach for 4 h (optimal DME profile per Lonza's testing) before dosing following the identical protocol as above.
# [4] = tested on: Francisella tularensis subsp. Holarctica Strain LVSR NR-597; experiment: microbe, parasite or virus in culture; format: cell-based
# [5] = Bacillus subtilis (Ehrenberg 1835) Cohn 1872 NRRL: B-571, read-out: MIC
# [6] = read-out: F. tularensis BSL-3 MIC, Strain 100
# [7] = read-out: F. tularensis BSL-3 MIC, strain HN-63
# [8] = read-out: F. tularensis BSL-3 MIC, strain LVS
# [9] = read-out: F. tularensis BSL-3 MIC, strain MA00-2987
# [10] = read-out: F. tularensis BSL-3 MIC, strain MO #1
# [11] = read-out: F. tularensis BSL-3 MIC, strain MO #2
# [12] = read-out: F. tularensis BSL-3 MIC, strain MO #3
# [13] = read-out: F. tularensis BSL-3 MIC, strain OR-96
# [14] = read-out: F. tularensis BSL-3 MIC, strain SCHU S4
# [15] = read-out: F. tularensis BSL-3 MIC, strain WY-96
# [16] = read-out: MAX, highest MIC over the Francisella tularensis strains
# [17] = read-out: MIN, lowest MIC over the Francisella tularensis strains
structure (smiles),measurement,setting,value
"Oc1ccccc1Sc1c[nH]c2ccc(Br)cc12 [Compound 174AI, 2-((5-bromo-1H-indol-3-yl)thio)phenol]",MBC,Bacillus subtilis,6.25 µg/mL
same,MIC,Bacillus subtilis; [5],0.78 µg/mL
same,MIC,"Bacillus subtilis; strain B-571 (Table 4), read-out: Bacillus subtilis MIC",0.78 µg/mL
same,MIC,"Bacillus subtilis; strain B-1985, read-out: Bacillus subtilis MIC",0.78 µg/mL
same,MIC,"Bacillus subtilis; strain B-3665, read-out: Bacillus subtilis MIC",6.25 µg/mL
same,MIC,"Bacillus subtilis; strain B-14322, read-out: Bacillus subtilis MIC",3.13 µg/mL
same,MIC,"Bacillus subtilis; strain B-41090, read-out: Bacillus subtilis MIC",6.25 µg/mL
same,MIC,"Bacillus subtilis; strain B-41581, read-out: Bacillus subtilis MIC",6.25 µg/mL
same,MIC,"Bacillus subtilis; strain BD-594, read-out: Bacillus subtilis MIC",6.25 µg/mL
same,MBC,Bacillus thuringiensis,> 50 µg/mL
same,MIC,Bacillus thuringiensis,0.78 µg/mL
same,toxicity in mice by body weight,[1],did not have significant toxicity
same,Animal body weight (kg) Day 0,"[1]; 0.1 mg/kg, 0.1 mg/kg",0.023 kg (2×) and 0.022 kg
same,Animal body weight (kg) Day 1,"[1]; 0.1 mg/kg, 0.1 mg/kg",0.022 kg (2×) and 0.021 kg
same,Animal body weight (kg) Day 2,"[1]; 0.1 mg/kg, 0.1 mg/kg",0.023 kg and 0.022 kg and 0.021 kg
same,Animal body weight (kg) Day 3,"[1]; 0.1 mg/kg, 0.1 mg/kg",0.024 kg and 0.022 kg (2×)
same,Animal body weight (kg) Day 4,"[1]; 0.1 mg/kg, 0.1 mg/kg",0.024 kg and 0.022 kg (2×)
same,Animal body weight (kg) Day 5,"[1]; 0.1 mg/kg, 0.1 mg/kg",0.024 kg and 0.022 kg (2×)
same,Animal body weight (kg) Day 6,"[1]; 0.1 mg/kg, 0.1 mg/kg",0.024 kg and 0.022 kg (2×)
same,Animal body weight (kg) Day 7,"[1]; 0.1 mg/kg, 0.1 mg/kg",0.023 kg (2×) and 0.022 kg
same,Animal body weight (kg) Day 0,"[1]; 1 mg/kg, 1 mg/kg",0.022 kg and 0.024 kg and 0.026 kg
same,Animal body weight (kg) Day 1,"[1]; 1 mg/kg, 1 mg/kg",0.023 kg and 0.024 kg and 0.026 kg
same,Animal body weight (kg) Day 2,"[1]; 1 mg/kg, 1 mg/kg",0.023 kg and 0.025 kg and 0.026 kg
same,Animal body weight (kg) Day 3,"[1]; 1 mg/kg, 1 mg/kg",0.023 kg and 0.025 kg and 0.027 kg
same,Animal body weight (kg) Day 4,"[1]; 1 mg/kg, 1 mg/kg",0.022 kg and 0.025 kg and 0.026 kg
same,Animal body weight (kg) Day 5,"[1]; 1 mg/kg, 1 mg/kg",0.022 kg and 0.025 kg and 0.026 kg
same,Animal body weight (kg) Day 6,"[1]; 1 mg/kg, 1 mg/kg",0.022 kg and 0.024 kg and 0.026 kg
same,Animal body weight (kg) Day 7,"[1]; 1 mg/kg, 1 mg/kg",0.022 kg and 0.024 kg and 0.026 kg
same,Animal body weight (kg) Day 0,"[1]; 10 mg/kg, 10 mg/kg",0.022 kg and 0.026 kg and 0.024 kg
same,Animal body weight (kg) Day 1,"[1]; 10 mg/kg, 10 mg/kg",0.021 kg and 0.024 kg and 0.022 kg
same,Animal body weight (kg) Day 2,"[1]; 10 mg/kg, 10 mg/kg",0.022 kg and 0.024 kg and 0.023 kg
same,Animal body weight (kg) Day 3,"[1]; 10 mg/kg, 10 mg/kg",0.022 kg and 0.025 kg and 0.023 kg
same,Animal body weight (kg) Day 4,"[1]; 10 mg/kg, 10 mg/kg",0.022 kg and 0.026 kg and 0.024 kg
same,Animal body weight (kg) Day 5,"[1]; 10 mg/kg, 10 mg/kg",0.023 kg and 0.026 kg and 0.024 kg
same,Animal body weight (kg) Day 6,"[1]; 10 mg/kg, 10 mg/kg",0.022 kg and 0.026 kg and 0.024 kg
same,Animal body weight (kg) Day 7,"[1]; 10 mg/kg, 10 mg/kg",0.022 kg and 0.026 kg and 0.023 kg
same,MIC,N. gonorrhoeae; strain #167,< 0.39 µg/mL
same,MIC50,[2],3 µg/mL
same,MIC,[2]; [6],6 µg/mL
same,MIC,[2]; [7],2 µg/mL
same,MIC,[2]; [8],4 µg/mL
same,MIC,[2]; [9],1.67 µg/mL
same,MIC,[2]; [10],1.33 µg/mL
same,MIC,[2]; [11],1.33 µg/mL
same,MIC,[2]; [12],2 µg/mL
same,MIC,[2]; [13],4 µg/mL
same,MIC,[2]; [14],4 µg/mL
same,MIC,[2]; [15],6 µg/mL
same,MIC,[2]; [16],6 µg/mL
same,MIC,[2]; [17],1.33 µg/mL
same,MBC,[3],> 50 µg/mL
same,MIC,[3],12.5 µg/mL
same,MFC,"Candida glabrata; minimum fungicidal concentration, read-out: MFC",25 µg/mL
same,MIC,Candida glabrata,6.25 µg/mL
same,EC50,NoSpin HepaRG cells,27.4 µg/mL
same,MIC,[4],2 µg/mL
"Nc1ccccc1Sc1c[nH]c2ccc(C(F)(F)F)cc12 [Compound 177C, 2-((5-(trifluoromethyl)-1H-indol-3-yl)thio)aniline]",MIC,Bacillus subtilis; [5],0.39 µg/mL
same,MIC,N. gonorrhoeae; strain #203,3.13 µg/mL
same,MIC,N. gonorrhoeae; strain #205,3.13 µg/mL
same,MBC,[3],> 50 µg/mL
same,MIC,[3],> 50 µg/mL
same,MIC,Candida glabrata,> 50 µg/mL
same,EC50,NoSpin HepaRG cells,48.2 µg/mL
same,MIC,[4],3.13 µg/mL
"Cc1[nH]c2ccc(Br)cc2c1Sc1ccccc1Br [Compound 174AZ, 5-bromo-3-((2-bromophenyl)thio)-2-methyl-1H-indole]",MBC,Bacillus subtilis,4 µg/mL
same,MIC,Bacillus subtilis; [5],1 µg/mL
same,MBC,Bacillus thuringiensis,8 µg/mL
same,MIC,Bacillus thuringiensis,1 µg/mL
same,toxicity in mice by body weight,[1],did not have significant toxicity
same,Animal body weight (kg) Day 0,"[1]; 0.1 mg/kg, 0.1 mg/kg",0.023 kg (2×) and 0.025 kg
same,Animal body weight (kg) Day 1,"[1]; 0.1 mg/kg, 0.1 mg/kg",0.022 kg and 0.024 kg and 0.023 kg
same,Animal body weight (kg) Day 2,"[1]; 0.1 mg/kg, 0.1 mg/kg",0.022 kg and 0.025 kg and 0.023 kg
same,Animal body weight (kg) Day 3,"[1]; 0.1 mg/kg, 0.1 mg/kg",0.022 kg and 0.025 kg and 0.023 kg
same,Animal body weight (kg) Day 4,"[1]; 0.1 mg/kg, 0.1 mg/kg",0.023 kg (2×) and 0.025 kg
same,Animal body weight (kg) Day 5,"[1]; 0.1 mg/kg, 0.1 mg/kg",0.022 kg and 0.025 kg and 0.023 kg
same,Animal body weight (kg) Day 6,"[1]; 0.1 mg/kg, 0.1 mg/kg",0.022 kg and 0.025 kg and 0.023 kg
same,Animal body weight (kg) Day 7,"[1]; 0.1 mg/kg, 0.1 mg/kg",0.022 kg (2×) and 0.025 kg
same,Animal body weight (kg) Day 0,"[1]; 1 mg/kg, 1 mg/kg",0.024 kg (2×) and 0.025 kg
same,Animal body weight (kg) Day 1,"[1]; 1 mg/kg, 1 mg/kg",0.023 kg and 0.024 kg (2×)
same,Animal body weight (kg) Day 2,[1]; 1 mg/kg,0.024 kg
same,Animal body weight (kg) Day 3,"[1]; 1 mg/kg, 1 mg/kg",0.025 kg and 0.024 kg (2×)
same,Animal body weight (kg) Day 4,"[1]; 1 mg/kg, 1 mg/kg",0.025 kg (2×) and 0.024 kg
same,Animal body weight (kg) Day 5,"[1]; 1 mg/kg, 1 mg/kg",0.025 kg and 0.023 kg and 0.024 kg
same,Animal body weight (kg) Day 6,"[1]; 1 mg/kg, 1 mg/kg",0.025 kg and 0.024 kg (2×)
same,Animal body weight (kg) Day 7,"[1]; 1 mg/kg, 1 mg/kg",0.025 kg and 0.023 kg and 0.024 kg
same,Animal body weight (kg) Day 0,"[1]; 10 mg/kg, 10 mg/kg",0.023 kg (2×) and 0.024 kg
same,Animal body weight (kg) Day 1,"[1]; 10 mg/kg, 10 mg/kg",0.022 kg (2×) and 0.023 kg
same,Animal body weight (kg) Day 2,"[1]; 10 mg/kg, 10 mg/kg",0.022 kg and 0.023 kg (2×)
same,Animal body weight (kg) Day 3,"[1]; 10 mg/kg, 10 mg/kg",0.022 kg (2×) and 0.023 kg
same,Animal body weight (kg) Day 4,[1]; 10 mg/kg,0.023 kg
same,Animal body weight (kg) Day 5,[1]; 10 mg/kg,0.023 kg
same,Animal body weight (kg) Day 6,"[1]; 10 mg/kg, 10 mg/kg",0.022 kg (2×) and 0.023 kg
same,Animal body weight (kg) Day 7,"[1]; 10 mg/kg, 10 mg/kg",0.023 kg (2×) and 0.022 kg
same,MIC,N. gonorrhoeae; strain #167,3.12 µg/mL
same,MIC50,[2],2 µg/mL
same,MIC,[2]; [6],4 µg/mL
same,MIC,[2]; [7],2 µg/mL
same,MIC,[2]; [8],2.67 µg/mL
same,MIC,[2]; [9],2 µg/mL
same,MIC,[2]; [10],1.33 µg/mL
same,MIC,[2]; [11],1 µg/mL
same,MIC,[2]; [12],2 µg/mL
same,MIC,[2]; [13],2 µg/mL
same,MIC,[2]; [14],4 µg/mL
same,MIC,[2]; [15],2 µg/mL
same,MIC,[2]; [16],4 µg/mL
same,MIC,[2]; [17],1 µg/mL
same,MIC,Candida glabrata,> 50 µg/mL
same,EC50,NoSpin HepaRG cells,25.8 µg/mL
same,MIC,[4],1 µg/mL
